Assay results taken from patent US20030109443A1, “Diagnosing, treating, and preventing cancer using cables” (priority 2001, published 2003).

Assays:
[1] = system: Cables mRNA levels in HES cells; test: Northern analysis of Cables mRNA after hormone treatment, HES cells; format: cell-based, human; conditions: vs untreated controls
Excerpt: FIGS. 15A and 15B are images showing northern analysis of Cables mRNA levels in HES cells (FIG. 15A) and SK-UT2 cells (FIG. 15B) following progesterone treatment.
FIGS. 16A and 16B are images showing northern analysis of Cables mRNA levels in HES cells (FIG. 16A) and SK-UT2 cells (FIG. 16B) following progesterone or estrogen treatment.
(§1) Cell lines have been used to investigate the effect of hormonal regulation on Cables expression, as well as the effect of Cables overexpression on these cells. We have isolated RNA and protein from HES, Ishikawa, and SK-UT2 endometrial cells lines for analysis. The influence of progesterone and estrogen on Cables expression was evaluated in these cells. […] Western analysis confirmed that a protein product was present. Conversely, estrogen reduced the levels of Cables mRNA expression in these cell lines (FIG. 16A). There is was no hormonal effect on Cables mRNA expression in SK-UT2 cells, which are derived from a G3 human uterine cancer (FIGS. 15B and 16B).

[2] = system: Cables mRNA levels in Ishikawa cells; test: Cables mRNA after hormone treatment, Ishikawa cells; format: cell-based; conditions: vs untreated controls
Protocol: as §1

cdk2 = cdk2 (UniProt P24941); test: cell-based or functional assay

Sequence of Wee1 (P30291 whole entry): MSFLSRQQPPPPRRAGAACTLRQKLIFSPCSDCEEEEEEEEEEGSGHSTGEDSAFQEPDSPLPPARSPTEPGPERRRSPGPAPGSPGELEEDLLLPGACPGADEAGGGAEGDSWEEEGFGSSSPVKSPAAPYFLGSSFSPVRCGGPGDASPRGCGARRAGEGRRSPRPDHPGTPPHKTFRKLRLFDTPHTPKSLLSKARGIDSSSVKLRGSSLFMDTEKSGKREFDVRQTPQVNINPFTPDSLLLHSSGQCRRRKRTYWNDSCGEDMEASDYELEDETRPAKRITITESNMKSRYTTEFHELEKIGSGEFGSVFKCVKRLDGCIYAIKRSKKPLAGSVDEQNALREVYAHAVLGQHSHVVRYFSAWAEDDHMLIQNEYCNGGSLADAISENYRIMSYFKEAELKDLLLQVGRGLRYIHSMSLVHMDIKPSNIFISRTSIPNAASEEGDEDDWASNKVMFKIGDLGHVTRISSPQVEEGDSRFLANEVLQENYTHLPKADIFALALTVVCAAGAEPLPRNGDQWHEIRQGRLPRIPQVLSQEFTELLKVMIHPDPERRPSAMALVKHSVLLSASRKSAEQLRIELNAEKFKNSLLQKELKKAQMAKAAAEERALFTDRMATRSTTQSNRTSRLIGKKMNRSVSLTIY
Sequence of Cables (full length, expressed from a transfected construct) (Q9ESJ1 whole entry): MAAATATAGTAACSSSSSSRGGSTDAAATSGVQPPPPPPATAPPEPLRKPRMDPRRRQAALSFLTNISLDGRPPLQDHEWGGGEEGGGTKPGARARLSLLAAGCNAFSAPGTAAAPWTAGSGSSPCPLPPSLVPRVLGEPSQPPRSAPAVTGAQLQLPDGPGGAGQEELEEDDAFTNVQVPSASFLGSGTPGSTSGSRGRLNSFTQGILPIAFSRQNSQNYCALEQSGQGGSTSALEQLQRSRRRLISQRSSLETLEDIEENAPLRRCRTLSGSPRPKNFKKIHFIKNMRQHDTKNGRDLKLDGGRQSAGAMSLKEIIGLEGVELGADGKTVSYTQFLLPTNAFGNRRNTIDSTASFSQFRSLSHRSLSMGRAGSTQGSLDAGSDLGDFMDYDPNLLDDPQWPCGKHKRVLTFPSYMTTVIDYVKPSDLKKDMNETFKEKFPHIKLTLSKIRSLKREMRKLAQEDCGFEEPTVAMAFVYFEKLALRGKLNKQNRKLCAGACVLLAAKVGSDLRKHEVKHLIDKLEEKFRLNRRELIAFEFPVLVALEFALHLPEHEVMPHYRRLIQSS

| Y15-phosphorylated cdk2 in stable Cables cell lines against control cell lines (cdk2 immunoprecipitation, phospho-Tyr15 antibody) (cdk2) [fold] | level of tyrosine phosphorylation of cdk2 (cdk2 immunoprecipitation, antiphosphotyrosine western blot, COS7 cells coexpressing Cables and Wee1) (times basal level) (cdk2) | Molecule | Cables mRNA levels [1] | Cables mRNA levels [2] |
| --- | --- | --- | --- | --- |
|  |  | CC(=O)[C@H]1CC[C@H]2[C@@H]3CCC4=CC(=O)CC[C@]4(C)[C@H]3CC[C@]12C [Progestin, progesterone] | dose dependent elevation | dose dependent elevation |
| 5 |  | Cables (full length, expressed from a transfected construct) |  |  |
|  | 30 | Wee1 (from UniProt P30291 1-646) (enzyme) |  |  |
|  |  | estrogen | reduced | reduced |
